From publication PMC6288471 (Frontiers in Veterinary Science, 2018)
Where two headings read alike, the source gives them in different places.

Tests used:
[1] = Clinical observation for adverse effects / safety testing of a trial IV dose; assay type: in vivo, horses
Description: The paste was transferred to a 60 mL syringe (Becton-Dickinson) and stored at room temperature until administration. For IV formulation, crushed tablets were dissolved in a vehicle consisting of 10% v/v N,N-dimethylacetamide (EMD Millipore, Billerica, MA, USA), 17% v/v propylene glycol (Sigma-Aldrich), 17% v/v dimethyl sulfoxide (DMSO, Sigma-Aldrich), and 56% v/v deionized water (MilliQ® water, Q-Pod®, EMD Millipore). After vigorous vortexing, the formulation was sterile filtered through a […] cellulose acetate filter (Corning Inc., Corning, NY, USA) then drawn into 60 mL syringes. The IV formulation was prepared 24 h before administration and stored at room temperature. […] To ensure that the vehicle was not toxic, safety testing was performed on a trial IV dose given to a different horse.
Some individual horses had test results that were slightly above or below the established reference intervals, but this likely represented normal biological variability. […] Again, we attributed this to normal biological variation.

[2] = Protein binding of apixaban in spiked platelet-poor plasma (ultrafiltration, UPLC-MS); assay type: in vitro ADME, horse
Description: The supernatant was filtered with a […] syringe filter (Corning Inc.). […] Half of the sample was subsequently frozen at −20°C and the rest was ultracentrifuged at 16,000 × g for 30 min in a molecular exclusion device (Amicon Ultra 30k filter, Millipore), to remove the major plasma proteins. The ultrafiltrate was then frozen at −20°C. Both the spiked plasma and the ultrafiltrate of the spiked plasma were analyzed for apixaban using UPLC-MS.

[3] = rats; cited from earlier work
[4] = humans; cited from earlier work
[5] = Clinical pathologic testing: select biochemical tests; assay type: in vivo, horses; conditions: for SDH (sorbitol dehydrogenase), median (range): reference interval 0–11; for GLDH (glutamate dehydrogenase), median (range): reference interval 1–8; for UN (urea nitrogen), median (range): reference interval 3.9–10.0; for SAA (serum amyloid A), median (range): reference interval 5–20, 5 mg/L is the lower limit of detection; for GGT (gamma glutamyl transferase), median (range): reference interval 8–29; for GLOB (globulins), median (range): reference interval 24–44; for ALB (albumin), median (range): reference interval 30–37; for CREAT (creatinine), median (range): reference interval 53–141; for TP (total protein), median (range): reference interval 57–77
Description: Automated hemogram results were obtained from the EDTA-anticoagulated blood with a hematology analyzer (ADVIA 2120, Siemens Healthcare Diagnostics Inc., Tarrytown, NJ, USA). To verify the automated platelet counts, modified Wright's-stained blood smears were evaluated for platelet clumps by trained medical technologists. Biochemical analysis for renal analytes (serum urea nitrogen and creatinine concentrations), liver enzymes (sorbitol dehydrogenase, glutamate dehydrogenase, aspartate aminotransferase and gamma glutamyl transferase activities), protein-related analytes (total protein, albumin, and globulin concentrations), and the acute phase protein, serum amyloid A, were performed with an automated chemistry analyzer (Hitachi P modular, Roche Diagnostics, Indianapolis, IN, USA) using manufacturer's reagents, with the exception of sorbitol dehydrogenase (Sigma-Aldrich), glutamate dehydrogenase (Randox Laboratories Ltd, Antrim, UK), and serum amyloid A (LZ test Eiken-SAA, Mast House, Merseyside, UK).

SMILES: COc1ccc(-n2nc(C(N)=O)c3c2C(=O)N(c2ccc(N4CCCCC4=O)cc2)CC3)cc1 [apixaban]
- clinically apparent adverse effects ([1]; horses, oral and IV formulations): no clinically apparent adverse effects
- changes in clinical pathologic test results ([1]; trial IV dose in a different horse, 24 h after IV bolus): no changes
- adverse clinical reactions ([1]; trial IV dose of dissolved apixaban in a different horse): no adverse clinical reactions
- fraction unbound at 30 min, 200 nM ([2]; horse PPP spiked at 92 ng/mL (200 nM), read-out: mean percentage of protein binding (converted)): 0.076
- fraction unbound at 30 min, 1000 nM ([2]; horse PPP spiked at 460 ng/mL (1,000 nM), read-out: mean percentage of protein binding (converted)): 0.015
- fraction unbound at 30 min ([2]; horse plasma, range as given in abstract): 0.01 to 0.08
- availability after oral administration [3]: 50%
- availability after oral administration [4]: 50%
- fecal route of elimination, share of the dose [4]: > 46%
- SDH (sorbitol dehydrogenase), median (range) ([5]; IV, T0 (before)): 4 (3–4) U/L
- GLDH (glutamate dehydrogenase), median (range) ([5]; IV, T0 (before)): 4 (3–4) U/L
- UN (urea nitrogen), median (range) ([5]; IV, T0 (before)): 6.8 (6.1–7.8) mmol/L
- SAA (serum amyloid A), median (range) ([5]; IV, T0 (before)): 5 (5–9) mg/L
- GGT (gamma glutamyl transferase), median (range) ([5]; IV, T0 (before)): 11 (10–13) U/L
- GLOB (globulins), median (range) ([5]; IV, T0 (before)): 36 (32–38) g/L
- ALB (albumin), median (range) ([5]; IV, T0 (before)): 32 (30–34) g/L
- CREAT (creatinine), median (range) ([5]; IV, T0 (before)): 106 (97–106) μmol/L
- TP (total protein), median (range) ([5]; IV, T0 (before)): 68 (66–71) g/L
- SDH (sorbitol dehydrogenase), median (range) ([5]; IV, T24): 3 (2–4) U/L
- GLDH (glutamate dehydrogenase), median (range) ([5]; IV, T24): 3 (3–5) U/L
- UN (urea nitrogen), median (range) ([5]; IV, T24): 5.7 (5.4–7.5) mmol/L
- SAA (serum amyloid A), median (range) ([5]; IV, T24): 8 (5–12) mg/L
- GGT (gamma glutamyl transferase), median (range) ([5]; IV, T24): 11 (10–13) U/L
- GLOB (globulins), median (range) ([5]; IV, T24): 37 (32–40) g/L
- ALB (albumin), median (range) ([5]; IV, T24): 32 (30–35) g/L
- CREAT (creatinine), median (range) ([5]; IV, T24): 115 (106–115) μmol/L
- TP (total protein), median (range) ([5]; IV, T24): 68 (67–72) g/L
- SDH (sorbitol dehydrogenase), median (range) ([5]; PO, T0 (before)): 5 (4–10) U/L
- GLDH (glutamate dehydrogenase), median (range) ([5]; PO, T0 (before)): 6 (4–10) U/L
- UN (urea nitrogen), median (range) ([5]; PO, T0 (before)): 6.4 (5.4–7.1) mmol/L
- SAA (serum amyloid A), median (range) ([5]; PO, T0 (before)): 5 (5–7) mg/L
- GGT (gamma glutamyl transferase), median (range) ([5]; PO, T0 (before)): 12 (7–13) U/L
- GLOB (globulins), median (range) ([5]; PO, T0 (before)): 35 (30–38) g/L
- ALB (albumin), median (range) ([5]; PO, T0 (before)): 32 (29–32) g/L
- CREAT (creatinine), median (range) ([5]; PO, T0 (before)): 97 (88–106) μmol/L
- TP (total protein), median (range) ([5]; PO, T0 (before)): 67 (62–70) g/L
- SDH (sorbitol dehydrogenase), median (range) ([5]; PO, T24): 4 (3–5) U/L
- GLDH (glutamate dehydrogenase), median (range) ([5]; PO, T24): 4 (4–7) U/L
- UN (urea nitrogen), median (range) ([5]; PO, T24): 5.7 (4.6–6.4) mmol/L
- SAA (serum amyloid A), median (range) ([5]; PO, T24): 5 (5–5) mg/L
- GGT (gamma glutamyl transferase), median (range) ([5]; PO, T24): 12 (9–13) U/L
- GLOB (globulins), median (range) ([5]; PO, T24): 36 (30–39) g/L
- ALB (albumin), median (range) ([5]; PO, T24): 32 (29–33) g/L
- CREAT (creatinine), median (range) ([5]; PO, T24): 106 (97–115) μmol/L
- TP (total protein), median (range) ([5]; PO, T24): 65 (63–72) g/L
- changes in chosen biochemical test results ([5]; horses, 24 h after PO or IV administration): no significant changes
